Values after ≈ are worked out from the molar mass of the structure shown. Where two headings read alike, the source gives them in different places.
Experiments:
Assay in all cases: MIC determination by in vitro antifungal assay
[1] = tested on: C. albicans ATCC 64124 (B); type: cell-based, Candida albicans
Experimental: (§1) 10 mg/mL stock solutions of compounds 1a-9j were prepared in dimethyl sulfoxide (DMSO) and were stored at −20° C. in the dark. The antifungal agent amphotericin B (AmB) was purchased from VWR (Radnor PA, USA). AmB was dissolved in DMSO at a final concentration of 5 mg/mL and was stored at −20° C., protected from light. Candida albicans American Type Culture Collection (ATCC) 10231 (strain A), C. albicans ATCC 64124 (B), and C. albicans ATCC MYA-2876 (C) were obtained from Utah State University. C. albicans ATCC 90819 (D), C. albicans ATCC MYA-2310 (E), C. albicans ATCC MYA-1237 (F), C. albicans ATCC MYA-1003 (G), Candida glabrata ATCC 2001 (H), Candida krusei ATCC 6258 (I), Candida parapsilosis ATCC 22019 (J), Cryptococcus neoformans ATCC MYA-895 (M), Aspergillus terreus ATCC MYA-3633 (N), and Aspergillus flavus ATCC MYA-3631 (0) were obtained from the American Type Culture Collection (ATCC; Manassas, VA, USA). Aspergillus nidulans ATCC 38163 (P) was obtained from University of Kentucky. Clinically derived Aspergillus fumigatus NRRL 163 (Q), A. fumigatus NRRL 5109 (R), and A. fumigatus NRRL 6113 (S) were obtained from Northern Regional Research Laboratory (NRRL). Candida auris 384 (K), C. auris 390 (L), and fungal strains 381-400 (including 10 C. auris (AR Bank #381-390), 3 Candida duobushaemulonii (AR Bank #391, AR Bank #392, and AR Bank #394), 2 Candida haemulonii (AR Bank #393 and AR Bank #395), 1 Kodameae ohmeri (AR Bank #396), 1 C. krusei (AR Bank #397), 1 Candida lusitaniae (AR Bank #398), and 2 Saccharomyces cerevisiae strains (AR Bank #399 and AR Bank #400)) were part of a larger fungal library from the AR Bank maintained by the Centers for Disease Control and Prevention (CDC; Atlanta, GA, USA). Filamentous fungi and yeasts were cultivated at 35° C. in RPMI 1640 medium (with L-glutamine, without sodium bicarbonate, Sigma-Aldrich, St. Louis, MO) buffered to a pH of 7.0 with 0.165 M morpholinepropanesulfonic acid (MOPS) buffer (Sigma-Aldrich). For cytotoxicity assays, HepG2 and the mouse macrophage cell line J774A.1 were obtained from University of Kentucky. The human embryonic kidney cell line, HEK-293, was bought from the ATCC. Mammalian cells were grown in Dulbecco's Modified Eagle's Medium (DMEM) (from VWR) with 10% fetal bovine serum (FBS) (from VWR) and 1% Pen/Strep (from ATCC). Cell lines were cultured at 37° C. with 5% CO2 and passaged by trypsinization with 0.05% trypsin: 0.53 mM EDTA (from Sigma-Aldrich).
(§2) The MIC values of compounds 1a-9j against yeast cells (strains A-P and 381-400) were determined in 96-well plates as described in the CLSI documents M27-A3 and M38-A2 with minor modifications.^2 A single colony of freshly prepared yeast cells was used to inoculate 5 mL of yeast extract peptone dextrose (YPD) broth prior to incubation overnight with shaking at 200 rpm at 35° C. From the actively growing yeast culture, 100 µL were then transferred to 900 μL of RPMI 1640 medium and re-adjusted to achieve OD600 of 0.12 (˜1×10^6 CFU/mL). The cell suspension was further diluted to achieve 1:100 in RPMI 1640 medium. 100 μL of cells were added to the wells of a 96-well microtiter plates that contained 100 µL of the compound solution to obtain concentrations of 0.06-31.3 μg/mL of compounds 1a-9j or AmB prior to incubation for 48 h at 35° C. […]

[2] = tested on: C. albicans ATCC 90819 (D); type: cell-based, Candida albicans
Experimental: as §1, §2

[3] = tested on: C. albicans ATCC MYA-1003 (G); type: cell-based, Candida albicans; conditions: strain G = C. albicans ATCC MYA-1063(R) (footnote), MYA-1003 in text
Experimental: as §1, §2

[4] = tested on: C. albicans ATCC MYA-1237 (F); type: cell-based, Candida albicans; conditions: strain F = C. albicans ATCC MYA-1237(R)
Experimental: as §1, §2

[5] = tested on: C. albicans ATCC MYA-2310 (E); type: cell-based, Candida albicans; conditions: strain E = C. albicans ATCC MYA-2310
Experimental: as §1, §2

[6] = tested on: C. albicans ATCC MYA-2876 (C); type: cell-based, Candida albicans; conditions: strain C = C. albicans ATCC MYA-2876(S)
Experimental: as §1, §2

[7] = tested on: Aspergillus terreus ATCC MYA-3633 (N); type: cell-based; conditions: strain N = A. terreus ATCC MYA-3633
Experimental: as §1
The MIC values of compounds 1a-9j against yeast cells (strains A-P and 381-400) were determined in 96-well plates as described in the CLSI documents M27-A3 and M38-A2 with minor modifications.^2 A single colony of freshly prepared yeast cells was used to inoculate 5 mL of yeast extract peptone dextrose (YPD) broth prior to incubation overnight with shaking at 200 rpm at 35° C. From the actively growing yeast culture, 100 µL were then transferred to 900 μL of RPMI 1640 medium and re-adjusted to achieve OD600 of 0.12 (˜1×10^6 CFU/mL). The cell suspension was further diluted to achieve 1:100 in RPMI 1640 medium. 100 μL of cells were added to the wells of a 96-well microtiter plates that contained 100 µL of the compound solution to obtain concentrations of 0.06-31.3 μg/mL of compounds 1a-9j or AmB prior to incubation for 48 h at 35° C.
Finally, the activity of these monohydrazides was explored against […] non-Candida strains: Cryptococcus neoformans ATCC MYA-895 (M), Aspergillus terreus ATCC MYA-3633 (N), Aspergillus flavus ATCC MYA-3631 (O), Aspergillus nidulans ATCC 38163 (P), Aspergillus fumigatus NRRL 163 (Q), A. fumigatus NRRL 5109 (R), and A. fumigatus NRRL 6113 (S) (Tables 1A and 1B). The double dilution method was used with concentrations ranging from 0.06 to 31.3 j·tg mL^−1 for monohydrazides 1a-9j, and the commercially available positive antifungal control amphotericin B (AmB).

[8] = Candida albicans, ATCC64124, strain B = C. albicans ATCC 64124, read-out: MIC
[9] = Candida albicans, ATCC90819, strain D = C. albicans ATCC 90819(R), read-out: MIC
[10] = Candida albicans, read-out: MIC
[11] = Aspergillus terreus, read-out: MIC
[12] = strain B = C. albicans ATCC 64124
[13] = strain D = C. albicans ATCC 90819(R)

## O=C(NNc1ccc(F)cc1)c1ccccn1 [Compound 2d]
[1]; [8]
  MIC: 0.98 mg/L (≈ 4.24 µM)
[2]; [9]
  MIC: 0.98 mg/L (≈ 4.24 µM)
[3]; [10]
  MIC: 0.49 mg/L (≈ 2.12 µM)
[4]; [10]
  MIC: 1.95 mg/L (≈ 8.43 µM)
[5]; [10]
  MIC: 1.95 mg/L (≈ 8.43 µM)
[6]; [10]
  MIC: 3.9 mg/L (≈ 16.9 µM)
[7]; [11]
  MIC: 1.95 mg/L (≈ 8.43 µM)

## O=C(NNc1ccc(Cl)cc1)c1ccccn1 [Compound 2e]
[1]; [12]
  MIC: 0.98 μg/mL^−1
[2]; [13]
  MIC: 0.24 μg/mL^−1
[3]
  MIC: 0.98 μg/mL^−1
[4]
  MIC: 0.98 μg/mL^−1
[5]
  MIC: 0.98 μg/mL^−1
[6]
  MIC: 1.95 μg/mL^−1
[7]
  MIC: 3.9 μg/mL^−1

## COc1ccc(NNC(=O)c2ccccn2)cc1 [Compound 2f]
[1]; [8]
  MIC: 0.98 mg/L (≈ 4.03 µM)
[2]; [9]
  MIC: 0.49 mg/L (≈ 2.01 µM)
[3]; [10]
  MIC: 0.98 mg/L (≈ 4.03 µM)
[4]; [10]
  MIC: 0.98 mg/L (≈ 4.03 µM)
[5]; [10]
  MIC: 0.98 mg/L (≈ 4.03 µM)
[6]; [10]
  MIC: 1.95 mg/L (≈ 8.02 µM)
[7]; [11]
  MIC: 31.3 mg/L (≈ 129 µM)

## O=C(NNc1ccc(F)cc1F)c1ccccn1 [Compound 2g]
[1]; [8]
  MIC: 1.95 mg/L (≈ 7.82 µM)
[2]; [9]
  MIC: 0.98 mg/L (≈ 3.93 µM)
[3]; [10]
  MIC: 0.49 mg/L (≈ 1.97 µM)
[4]; [10]
  MIC: 0.49 mg/L (≈ 1.97 µM)
[5]; [10]
  MIC: 31.3 mg/L (≈ 126 µM)
[6]; [10]
  MIC: 0.98 mg/L (≈ 3.93 µM)
[7]; [11]
  MIC: 0.98 mg/L (≈ 3.93 µM)

## O=C(NNc1cc(F)ccc1F)c1ccccn1 [Compound 2h]
[1]; [8]
  MIC: 1.95 mg/L (≈ 7.82 µM)
[2]; [9]
  MIC: 0.98 mg/L (≈ 3.93 µM)
[3]; [10]
  MIC: 0.98 mg/L (≈ 3.93 µM)
[4]; [10]
  MIC: 1.95 mg/L (≈ 7.82 µM)
[5]; [10]
  MIC: 1.95 mg/L (≈ 7.82 µM)
[6]; [10]
  MIC: 3.9 mg/L (≈ 15.6 µM)
[7]; [11]
  MIC: 0.98 mg/L (≈ 3.93 µM)

## O=C(NNc1cc(F)cc(F)c1)c1ccccn1 [Compound 2i]
[1]; [8]
  MIC: 0.98 mg/L (≈ 3.93 µM)
[2]; [9]
  MIC: 0.98 mg/L (≈ 3.93 µM)
[3]; [10]
  MIC: 0.49 mg/L (≈ 1.97 µM)
[4]; [10]
  MIC: 1.95 mg/L (≈ 7.82 µM)
[5]; [10]
  MIC: 0.98 mg/L (≈ 3.93 µM)
[6]; [10]
  MIC: 0.98 mg/L (≈ 3.93 µM)
[7]; [11]
  MIC: 0.98 mg/L (≈ 3.93 µM)

## O=C(NNc1cc(Cl)cc(Cl)c1)c1ccccn1 [Compound 2j]
[1]; [8]
  MIC: 1.95 mg/L (≈ 6.91 µM)
[2]; [9]
  MIC: 0.98 mg/L (≈ 3.47 µM)
[3]; [10]
  MIC: 1.95 mg/L (≈ 6.91 µM)
[4]; [10]
  MIC: 3.9 mg/L (≈ 13.8 µM)
[5]; [10]
  MIC: 1.95 mg/L (≈ 6.91 µM)
[6]; [10]
  MIC: 1.95 mg/L (≈ 6.91 µM)
[7]; [11]
  MIC: 1.95 mg/L (≈ 6.91 µM)

## O=C(NNc1cccc(F)c1)c1ccc(F)cn1 [Compound 3a]
[1]; [12]
  MIC: 0.49 μg/mL^−1
[2]; [13]
  MIC: 3.9 μg/mL^−1
[3]
  MIC: 1.95 μg/mL^−1
[4]
  MIC: 3.9 μg/mL^−1
[5]
  MIC: 3.9 μg/mL^−1
[6]
  MIC: 3.9 μg/mL^−1
[7]
  MIC: 1.95 μg/mL^−1

## COc1cccc(NNC(=O)c2ccc(F)cn2)c1 [Compound 3c]
[1]; [12]
  MIC: 0.95 μg/mL^−1
[2]; [13]
  MIC: 3.9 μg/mL^−1
[3]
  MIC: 0.98 μg/mL^−1
[4]
  MIC: 1.95 μg/mL^−1
[5]
  MIC: 1.95 μg/mL^−1
[6]
  MIC: 0.49 μg/mL^−1
[7]
  MIC: 3.9 μg/mL^−1
